Assay results from the supplement of paper PMC10883282.
± gives the standard deviation of the averaged measurements.

Test system: HT1080
Experiment: relative viability vs DMSO control (72 h) (fraction); higher = more viable cells
In short: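 Percent growth from ATPLite readings, averaged over up to triplicate wells, was used as relative viability. Sarcoma cell lines were seeded into 384-well plates for 80–90% confluence, dosed after 24 h, and kept 72 h at 37 °C, 5% CO2. Data were rescaled to a range where 1 is full and 0 is none.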

| SMILES | relative viability (0.00017 µM) | relative viability (0.00051 µM) | relative viability (0.00152 µM) | relative viability (0.00457 µM) | relative viability (0.01372 µM) | relative viability (0.04115 µM) | relative viability (0.1235 µM) | relative viability (0.3704 µM) | relative viability (1.111 µM) | relative viability (3.333 µM) | relative viability (10 µM) |
| --- | --- | --- | --- | --- | --- | --- | --- | --- | --- | --- | --- |
| CC(C)N1CCN(Cc2cnc(-c3cc(-c4cccc5[nH]ccc45)cc4[nH]ncc34)o2)CC1 [Nemiralisib] | 1 ± 0.045 | 1.03 ± 0.015 | 1.01 ± 0.02 | 1.027 ± 0.0081 | 1.008 ± 0.0024 | 1.02 ± 0.011 | 1.05 ± 0.045 | 1.05 ± 0.034 | 1.08 ± 0.068 | 1.02 ± 0.033 | 0.858 ± 0.024 |
| C=CC(=O)N1CCC[C@@H](n2nc(-c3ccc(Oc4ccccc4)cc3)c3c(N)ncnc32)C1 [Ibrutinib] | 1.07 ± 0.019 | 1.11 ± 0.019 | 1.1 ± 0.012 | 1.05 ± 0.012 | 1.1 ± 0.022 | 1.06 ± 0.055 | 1.06 ± 0.015 | 1.07 ± 0.025 | 1.12 ± 0.027 | 1.14 ± 0.022 | 1.101 ± 0.0017 |
| CN1CCC(COc2cnc(-c3cccc(Cn4nc(-c5cccc(C#N)c5)ccc4=O)c3)nc2)CC1 [Tepotinib] | 1.1 ± 0.066 | 1.09 ± 0.025 | 1.12 ± 0.013 | 1.081 ± 0.0059 | 1.092 ± 0.0041 | 1.07 ± 0.016 | 1.07 ± 0.043 | 1.07 ± 0.059 | 1.04 ± 0.034 | 1.032 ± 0.0023 | 0.8618 ± 0.0058 |
| C[C@@H]1CCN(C(=O)CC#N)C[C@@H]1N(C)c1ncnc2[nH]ccc12 [Tofacitinib] | 1.06 ± 0.044 | 1.1 ± 0.035 | 1.07 ± 0.025 | 1.077 ± 0.0086 | 1.1 ± 0.022 | 1.08 ± 0.018 | 1.08 ± 0.085 | 1.1 ± 0.04 | 1.07 ± 0.012 | 1.03 ± 0.027 | 1.02 ± 0.024 |
| Cc1cc(Nc2ncnc3ccc(NC4=NC(C)(C)CO4)cc23)ccc1Oc1ccn2ncnc2c1 [Tucatinib] | 1.06 ± 0.043 | 1.071 ± 0.0057 | 1.108 ± 0.0063 | 1.09 ± 0.054 | 1.1 ± 0.027 | 1.0875 ± 7.1e-05 | 1.08 ± 0.032 | 1.067 ± 0.01 | 1.05 ± 0.011 | 1.06 ± 0.026 | 0.948 ± 0.012 |
| O=C(Nc1cnn2ccc(N3CCC[C@@H]3c3cc(F)ccc3F)nc12)N1CC[C@H](O)C1 [Larotrectinib] | 1.08 ± 0.042 | 1.05 ± 0.035 | 1.05 ± 0.039 | 1.05 ± 0.054 | 1.07 ± 0.038 | 1.06 ± 0.058 | 1.07 ± 0.014 | 1.09 ± 0.036 | 1.04 ± 0.028 | 1.06 ± 0.022 | 1.03 ± 0.022 |
| C=CC(=O)N1CCC([C@@H]2CCNc3c(C(N)=O)c(-c4ccc(Oc5ccccc5)cc4)nn32)CC1 [Zanubrutinib] | 1.04 ± 0.022 | 1.05 ± 0.022 | 1.04 ± 0.04 | 1.03 ± 0.024 | 1.03 ± 0.026 | 1.03 ± 0.031 | 1.03 ± 0.028 | 1.05 ± 0.071 | 1.017 ± 0.0087 | 1.02 ± 0.033 | 1.02 ± 0.026 |
| CO[C@H]1C[C@@H]2CC[C@@H](C)[C@@](O)(O2)C(=O)C(=O)N2CCCC[C@H]2C(=O)O[C@H]([C@H](C)C[C@@H]2CC[C@@H](OP(C)(C)=O)[C@H](OC)C2)CC(=O)[C@H](C)/C=C(\C)[C@@H](O)[C@@H](OC)C(=O)[C@H](C)C[C@H](C)/C=C/C=C/C=C/1C [Ridaforolimus] | 1.1 ± 0.019 | 1.08 ± 0.02 | 1.13 ± 0.047 | 1.08 ± 0.03 | 1.03 ± 0.011 | 0.99 ± 0.028 | 0.983 ± 0.034 | 0.9952 ± 0.0077 | 0.9672 ± 0.0023 | 0.9615 ± 0.0033 | 0.934 ± 0.028 |
| COc1cc2/c(=N/c3ccc(Br)cc3F)nc[nH]c2cc1OCC1CCN(C)CC1 [Vandetanib] | 1.02 ± 0.015 | 1.02 ± 0.026 | 1.03 ± 0.026 | 1.03 ± 0.022 | 1.03 ± 0.026 | 1.02 ± 0.034 | 1.02 ± 0.043 | 1.03 ± 0.031 | 1.02 ± 0.02 | 0.962 ± 0.04 | 0.326 ± 0.022 |
| CCc1cc2c(cc1N1CCC(N3CCOCC3)CC1)C(C)(C)c1[nH]c3cc(C#N)ccc3c1C2=O [Alectinib] | 1.07 ± 0.018 | 1.09 ± 0.0051 | 1.06 ± 0.032 | 1.09 ± 0.014 | 1.077 ± 0.0047 | 1.11 ± 0.045 | 1.08 ± 0.02 | 1.11 ± 0.028 | 1.07 ± 0.024 | 1.07 ± 0.047 | 1.02 ± 0.051 |
| Cc1nc(-c2cn3c(n2)-c2ccc(-c4cnn(C(C)(C)C(N)=O)c4)cc2OCC3)n(C(C)C)n1 [Taselisib] | 1.016 ± 0.01 | 1.01 ± 0.017 | 1.02 ± 0.015 | 1.03 ± 0.056 | 1.02 ± 0.011 | 1.02 ± 0.016 | 1.034 ± 0.0069 | 1.04 ± 0.018 | 1.02 ± 0.052 | 1.01 ± 0.012 | 0.738 ± 0.0029 |
| O=C(Cc1ccc(-c2ccc(OCCN3CCOCC3)cc2)cn1)NCc1ccccc1 [KX2-391] | 1.07 ± 0.025 | 1.1 ± 0.013 | 1.11 ± 0.019 | 1.1 ± 0.033 | 1.06 ± 0.013 | 1.06 ± 0.022 | 0.117 ± 0.0064 | 0.0565 ± 0.0006 | 0.0434 ± 0.0068 | 0.0333 ± 0.0026 | 0.0365 ± 0.0027 |
